The subject of one experiment is P. aeruginosa PA14. The experiment in a line: Mouse burn and infection (BI) model, survival. Type of experiment: in vivo, mice. Conditions: for average survival after 5 days: IV tail vein 100 μl of 10 mM, four days prior to burn/infection, n=8-10, control 10% (FIG. 9); for final mice survival rate at 7 days post burn and infection: single IV injection at 6 hrs (100 μl 20 mM), control 10% (FIG. 24). As to the method: Burn wound infection in mice can be established by subcutaneous or topical administration of the bacteria to the sites of the burn. […] Six-week old CD-1 male mice were used.
To induce infection, the mice were placed under general anesthesia via intraperitonial injection of 40 mg/kg Pentobarbital, the ventral surface was shaved, and a central skin fold elevated was simultaneously compressed from both sides for 5 seconds using two 2×2 cm metal blocks preheated to 95-100° C., to produce a non-lethal 5-8% full thickness burn with negligible focal necrosis of the underlying muscle or damage to underlying visceral organs. IP saline was administered for fluid resuscitation for ≧5% total body surface burns: avoiding vital structures, saline was injected into the left lower quadrant of the abdominal area of the anesthetized animal post-burn. This burn procedure was followed by mid-eschar inoculation of 100 μL of bacterial suspension containing ˜5×10^5 CFU. The animals were returned to their cages and provided mouse chow and water ad libitum. Animals typically recover from the anesthesia within 20 minutes post-administration. Criteria used to evaluate anesthesia recovery are state of alertness, mobility, and reaction to surrounding stimuli. Mice were monitored twice a day for symptoms and deaths, with increased monitoring every 6-8 hours during the period of greatest potential for infection and clinical disease.
The mouse full-thickness skin thermal injury infection model was used to test if 2AA restricts P, aeruginosa virulence. This model is predictable and reproducible; clinically relevant; and can lead to MODS and mortality. Briefly, a ˜15% total burn surface area (TBSA) thermal scalding injury is produced on the abdominal skin, leaving the underlying muscle intact, and the inoculum is delivered into the scald eschar. […]

The next experiment has as its system P. aeruginosa. Kind of experiment: P. aeruginosa growth kinetics (spectrophotometric analysis at 600 nm). Type of experiment: cell-based, Pseudomonas aeruginosa. Conditions: for bacterial growth (PA14): FIG. 23B. An excerpt:
P. aeruginosa strains include wild-type (PA14, see Rahme et al., Science 268:1899-1902, 1995); a PA14 mvfR mutant (Cao et al., Proc. Natl. Acad. Sci. USA 98:14613-14618, 2001); a pqsE deletion mutant, generated via pEX18Ap allelic replacement by using sucrose selection (Hoang et al., Gene 212:77-86, 1998), resulting in a 570-bp nonpolar deletion covering 65% of the sequence (Déziel et al. PNAS); and the pqsA (U479) TnphoA mutant obtained from the PA14 Transposon Insertion Mutant Database. Bacteria were grown in LB broth or on 1.5% Bacto-agar (Difco) LB plates. Freshly plated cells served as inoculum.
P. aeruginosa was grown in the presence of 2 mM of 2′-aminoacetophenone (2AA), 3′-aminoacetophenone (3AA), 4′-aminoacetophenone (4AA), or 2′-nitroacetophenone (2NA), or in the absence of any of these compounds (control). Bacterial growth was followed over 26 hours by spectrophotometric analysis at 600 nm.
Bacterial growth was also followed over 35 hours by spectrophotometric analysis at 600 nm.

For the next experiment, the system named is pyocyanin production. The experiment in a line: Pyocyanin production. Format: cell-based, Pseudomonas aeruginosa.
The target of another experiment is T1, PqsA (Pseudomonas aeruginosa, UniProt Q9I4X3).
T1 construct: endogenous in cells; host or cells: P. aeruginosa PA14 cultures
T1 sequence (Q9I4X3 whole entry): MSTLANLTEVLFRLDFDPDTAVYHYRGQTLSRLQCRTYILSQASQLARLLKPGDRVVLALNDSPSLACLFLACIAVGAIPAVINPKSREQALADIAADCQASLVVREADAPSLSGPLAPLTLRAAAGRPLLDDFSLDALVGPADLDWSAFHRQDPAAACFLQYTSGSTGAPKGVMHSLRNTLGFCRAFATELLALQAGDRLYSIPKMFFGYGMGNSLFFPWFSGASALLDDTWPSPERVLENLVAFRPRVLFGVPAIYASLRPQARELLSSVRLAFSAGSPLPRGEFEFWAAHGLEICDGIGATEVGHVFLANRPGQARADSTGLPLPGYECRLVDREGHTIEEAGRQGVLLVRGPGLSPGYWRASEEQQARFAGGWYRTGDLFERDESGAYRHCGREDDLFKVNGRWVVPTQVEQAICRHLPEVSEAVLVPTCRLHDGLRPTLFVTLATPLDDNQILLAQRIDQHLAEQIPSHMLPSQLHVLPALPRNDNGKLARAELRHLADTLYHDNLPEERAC
Kind of experiment: Anthranilic acid accumulation and AA competition in PA14 cultures. Format: cell-based. Conditions: for accumulation of anthranilic acid: PA14 culture with inhibitor vs control (FIG. 31). From the text: In P. aeruginosa anthranilic acid is also produced by the enzymatic systems PhnAB or TrpEG. […] This accumulation could be due to inhibition of PqsA or of any enzyme downstream in the HAQ biosynthesis. […] This reversal could only be explained by a competitive inhibition of an enzyme acting on AA. Because pqsA is the only enzyme of the pqsA-E operon to present similarities with enzymes involved in the activation of aromatic acid group, like the one found in anthranilic acid, we conclude that these inhibitors act on PqsA in a competitive manner with its substrate AA.

The subject of experiment [1] is 4-hydroxy-2-alkylquinoline (HAQ) production. Format: cell-based, Pseudomonas aeruginosa.
In a further experiment the target is T2, MvfR (Pseudomonas aeruginosa, UniProt Q9I4X0).
T2 construct: made in house; host or cells: E. coli (cell lysate, not purified)
T2 sequence (Q9I4X0 whole entry): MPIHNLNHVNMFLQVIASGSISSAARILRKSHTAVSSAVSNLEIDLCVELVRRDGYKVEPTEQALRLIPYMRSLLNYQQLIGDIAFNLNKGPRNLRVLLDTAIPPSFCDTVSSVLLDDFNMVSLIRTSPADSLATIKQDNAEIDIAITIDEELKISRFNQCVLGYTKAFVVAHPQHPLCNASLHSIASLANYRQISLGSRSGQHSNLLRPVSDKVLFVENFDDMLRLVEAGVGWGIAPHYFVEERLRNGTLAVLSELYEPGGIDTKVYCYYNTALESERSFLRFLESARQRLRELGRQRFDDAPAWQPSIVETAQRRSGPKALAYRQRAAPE
Kind of experiment: MvfR binding to radiolabeled pqsA promoter DNA fragment (gel shift). Particulars: 40 pM ligand, E. coli cell lysate containing MvfR (FIGS. 20A, 20B). As to the method: FIGS. 20A and 20B show binding of MvfR to the pqsA promoter. FIG. 20A is a gel showing that MvfR binds to the pqsA promoter in the absence of HHQ or PQS, but that binding is increased in the presence of HHQ or PQS. A ^32P-labeled 174-bp DNA fragment containing the pqsA promoter region was mixed with E. coli cell lysate containing MvfR minus ligand (lanes 2-3); plus 40 pM HHQ (lanes 4-5); or plus 40 pM PQS (lanes 6-7). Protein added per reaction: lane 1, 0 ng/μl; lanes 2, 4, and 6, 30 ng/μl; and lanes 3, 5, and 7, 60 ng/μl. HHQ and PQS were added at the final concentration of 40 pM. Reaction mixtures were electrophoresed on 5% non-denatured polyacrylamide gels. FIG. 20B is a graph showing the densitometry of shifted bands.
To determine if HHQ potentiates MvfR DNA-binding, a 174-bp radiolabeled pqsA promoter region DNA fragment containing the potential LysR-box sequence was mixed with E. coli cell lysate containing MvfR.

Experiment [2] relates to pqsA-LacZ (MvfR-dependent pqs operon transcription). The experiment in a line: pqsA-LacZ expression (β-galactosidase activity). Type of experiment: cell-based, Pseudomonas aeruginosa. Conditions: PA14 pqsH/pqsA double mutant, compound added at OD600 1.0 (FIG. 19). On the procedure: To assess the effect of this compound on bacteria, we analyzed the production of HAQs in the presence of 2AA using LC/MS. The bacteria were propagated in the presence of 3 mM 2AA, culture media was collected at different time points, and the HHQ, PQS and HQNO production was measured in the supernatant. […] Since 2AA addition to the P. aeruginosa culture inhibits the production of HHQ and PQS, we assessed the transcription from the pqs operon using a pqsA-LacZ fusion.
To further, understand the mechanism of inhibition of the pqs operon by 2AA, we carried out competition assays of PQS and HHQ with 2AA. The expression of pqsA-LacZ in pqsApqsH double mutants was assessed. Bacteria were grown to an OD600 of 1.0 and HHQ and PQS were added either alone or with 2AA. LacZ expression was assayed at different stages of the growth, using standard protocols.
To determine whether HHQ activates MvfR expression, we generated a PA14pqsH/pqsA double mutant that lacks all HAQ production, and assessed pqsA-lacZ activity in the absence and presence of HHQ and PQS.

The mark [3] stands for this setting: 2 mM compound, followed over 26 hours at 600 nm (FIG. 4).

“Also recorded” adds a separate entry of the source.

For the compound `CC(=O)c1cccc(O)c1N` [2-amino-3 hydroxy acetophenone], the “protection (survival curves)” value in the experiment with P. aeruginosa PA14 (10 mM solutions IV 4 days pre-BI (FIGS. 11A, 11B)) is reported as “decreased protective efficacy versus 2AA”.
On to `CC(=O)c1ccccc1[N+](=O)[O-]` [2NA, 2′-nitroacetophenone], for which the “average survival after 5 days” value in the experiment on P. aeruginosa PA14 is 50%. The Bacterial growth result in the experiment on P. aeruginosa (setting [3]) is reported as “only slightly retarded”.
The corresponding values for `CC(=O)c1cccc(N)c1` [3AA, 3′-aminoacetophenone] are 50% and “only slightly retarded”.
With `Nc1cc(Cl)ccc1C(=O)O` [4-CABA, 4-chloro-2-aminobenzoic acid], the pyocyanin production result in the experiment with pyocyanin production is recorded as “without abrogating pyocyanin production”. Besides, the “accumulation of anthranilic acid” value on PqsA was “transient accumulation”. The “final mice survival rate at 7 days post burn and infection” value in the experiment with P. aeruginosa PA14 is roughly 50%. In addition, the Bacterial growth result with P. aeruginosa (1.5 mM compound, followed over 35 hours at 600 nm (FIG. 6)) is on record as “only slightly retarded”. The “bacterial growth (PA14)” value in the experiment with P. aeruginosa is recorded as “without affecting bacterial growth”. In experiment [1], the “HAQ production / HAQs synthesis” value is “completely halted”; the “inhibition of 4-hydroxy-2-alkylquinoline (HAQ) production” value (from here on “inhibition … (HAQ) production”) is recorded as “potent inhibitors”; the “production of the principal members of the three main HAQ families (HHQ, HQNO, PQS)” value was “dramatically decreased”.
Consider `Nc1cc(F)ccc1C(=O)O` [4-FABA, 4-fluoro-2-aminobenzoic acid], for which the “inhibition … (HAQ) production” value in experiment [1] was “potent inhibitors”.
Turning to `CC(=O)c1ccc(N)cc1` [4AA, 4′-aminoacetophenone], in the experiment with P. aeruginosa PA14, the “average survival after 5 days” value came out at 50%. Moreover, in the experiment on P. aeruginosa (setting [3]), the Bacterial growth entry is listed as “only slightly retarded”.
Regarding `Nc1ccc(F)cc1C(=O)O` [5-FABA, 5-fluoro-2-aminobenzoic acid], in experiment [1], the “HAQ production / HAQs synthesis” value is “inhibited HAQ production” and the “inhibition … (HAQ) production” value is recorded as “potent inhibitors”.
Regarding `Nc1cccc(Cl)c1C(=O)O` [6-CABA, 6-chloro-2-aminobenzoic acid], the pyocyanin production result with pyocyanin production was “without abrogating pyocyanin production”. In addition, the “accumulation of anthranilic acid” value on PqsA is on record as “transient accumulation”. Moreover, the “effect of increasing concentrations of AA on inhibition of HAQ production” value on PqsA (culture containing 1.5 mM inhibitor (FIG. 32)) was “reversed the inhibition”. The “final mice survival rate at 7 days post burn and infection” value in the experiment with P. aeruginosa PA14 was roughly 40%. In the experiment on P. aeruginosa, the “bacterial growth (PA14)” value is “without affecting bacterial growth; also recorded: does not inhibit PA14 growth”. Also, in experiment [1], the “HAQ production / HAQs synthesis” value is on record as “inhibited HAQ production; also recorded: completely halted”; the “inhibition … (HAQ) production” value is recorded as “potent inhibitors”; the “production of the principal members of the three main HAQ families (HHQ, HQNO, PQS)” value was “dramatically decreased”.
`CCCCCCCc1cc(O)c2ccccc2n1` [HHQ, 4-hydroxy-2-heptylquinoline, reference compound]: the MvfR-pqsA promoter binding result at MvfR is given as “potentiate MvfR-pqsA promoter binding, with weaker activity seen with HHQ versus PQS”. In addition, the “MvfR-dependent pqsA-lacZ activity” value in experiment [2] is “induce MvfR-dependent pqsA-lacZ activity”.
`COC(=O)c1ccccc1N` [MA, methyl anthranilate, reference compound]: the PA14 growth result in the experiment on P. aeruginosa (methylanthranilate (FIG. 25B)) was “inhibits PA14 growth”. Also, in experiment [1], the PQS production entry was “prevents PQS production”, the “levels of HAQs” value is listed as “reduces the levels of several HAQs” and the “production of N-oxides” value was “production of N-oxides at very high concentrations”.
Turning to `CCCCCCCc1nc2ccccc2c(O)c1O` [PQS, 3,4-dihydroxy-2-heptylquinoline, reference compound], at MvfR, the MvfR-pqsA promoter binding entry is on record as “potentiate MvfR-pqsA promoter binding”. Moreover, in experiment [2], the “MvfR-dependent pqsA-lacZ activity” value was “induce MvfR-dependent pqsA-lacZ activity”.

The record behind these values is patent US20130209515A1, “ANTI-INFECTIVE AND IMMUNOMODULATORY COMPOUNDS” (priority 2005, published 2013).
